{"source": "EPA's ToxRefDB 2", "key": {"rat [1]": {"test_system": "rat", "conditions": "Prenatal developmental toxicity study, sprague dawley, Injection, Intravenous, dose end: 17 GD"}, "rabbit": {"test_system": "rabbit", "conditions": "Prenatal developmental toxicity study, new zealand white, Injection, Intravenous, dose end: 19 GD"}, "rat [2]": {"test_system": "rat", "conditions": "Fertility (Segment I); sprague dawley; Injection; Intravenous; dose end: 20 GD; group: parental; systemic / in life observation / body weight / body weight gain + systemic / in life observation / food consumption / food consumption + …"}, "[3]": {"conditions": "group: developmental, developmental / developmental malformation / bone / incomplete ossification + developmental / developmental malformation / bone / knobby + …"}, "[4]": {"conditions": "group: developmental, developmental / developmental malformation / ureter / convoluted"}, "[5]": {"conditions": "group: maternal, systemic / in life observation / body weight / body weight gain"}, "[6]": {"conditions": "group: maternal, systemic / in life observation / body weight / body weight gain + systemic / in life observation / food consumption / food consumption"}, "[7]": {"conditions": "group: developmental, developmental / developmental malformation / heart / enlarged aortic valve"}, "[8]": {"conditions": "group: maternal, reproductive / offspring survival early / litter size / litter size"}}, "data": [{"smiles": "CCOC(=O)c1ccc(C2CCC(NC[C@H](O)COc3ccc(O)c(NS(C)(=O)=O)c3)CC2)cc1.Cl", "note": "(stereo partly drawn)", "values": [{"measurement": "LOAEL", "setting": "rat [1]; [3]", "value": 160, "unit": "mg/kg/day"}, {"measurement": "NOAEL", "setting": "rat [1]; [3]", "value": 40, "unit": "mg/kg/day"}, {"measurement": "LEL", "setting": "rat [1]; [4]", "value": 10, "unit": "mg/kg/day"}, {"measurement": "NEL", "setting": "rat [1]; [4]", "value": "< 10", "unit": "mg/kg/day"}, {"measurement": "LEL", "setting": "rat [1]; [5]", "value": 10, "unit": "mg/kg/day"}, {"measurement": "NEL", "setting": "rat [1]; [5]", "value": "< 10", "unit": "mg/kg/day"}, {"measurement": "LOAEL", "setting": "rat [1]; [6]", "value": 160, "unit": "mg/kg/day"}, {"measurement": "NOAEL", "setting": "rat [1]; [6]", "value": 40, "unit": "mg/kg/day"}, {"measurement": "LEL", "setting": "rabbit; [7]", "value": 160, "unit": "mg/kg/day"}, {"measurement": "LOAEL", "setting": "rabbit; [7]", "value": "> 160", "unit": "mg/kg/day"}, {"measurement": "NEL", "setting": "rabbit; [7]", "value": 80, "unit": "mg/kg/day"}, {"measurement": "NOAEL", "setting": "rabbit; [7]", "value": "≥ 160", "unit": "mg/kg/day"}, {"measurement": "LOAEL", "setting": "rabbit; [8]", "value": 80, "unit": "mg/kg/day"}, {"measurement": "NOAEL", "setting": "rabbit; [8]", "value": 40, "unit": "mg/kg/day"}, {"measurement": "LEL", "setting": "rabbit; group: maternal, reproductive / offspring survival early / litter size / litter size + reproductive / reproductive performance / postimplantation loss / …", "value": 80, "unit": "mg/kg/day"}, {"measurement": "NEL", "setting": "rabbit; group: maternal, reproductive / reproductive performance / postimplantation loss / postimplantation loss + reproductive / reproductive performance / …", "value": 40, "unit": "mg/kg/day"}, {"measurement": "LEL", "setting": "rat [2]", "value": 160, "unit": "mg/kg/day"}, {"measurement": "LOAEL", "setting": "rat [2]", "value": 160, "unit": "mg/kg/day"}]}]}
